Data reported in patent US11426422B2, “SHP2 inhibitors and methods of use thereof” (Research Development Foundation, priority 2018, dated 2022).
Where no end group is shown, it is not given here. [ ]: non-standard residue; d: D form. pY = N[C@@H](Cc1ccc(OP(=O)(O)O)cc1)C(=O)O

Legend:
[1] = tested on: HepG2 cells expressing IR-GFP WT; test: insulin-activated IR endocytosis in HepG2 cells expressing IR-GFP WT (immunofluorescence, PM/IC ratio); type: cell-based; conditions: serum starved 14 h, inhibitor 2 h, then 100 nM insulin 20 min; BMS536924 2 μM, U0126 40 μM, SHP099 40 μM, AKT inhibitor VIII 5 μM, BI2536 200 nM, Reversine 1 μM
Experimental: (FIG. 2A) HepG2 cells expressing IR-GFP WT were starved, treated with the indicated inhibitors for 2 h, treated without or with 100 nM insulin for 20 min, and stained with anti-GFP (IR; green) and DAPI (blue). […] Quantification of the ratios of PM and IC IR-GFP signals of cells was shown (mean±SD; *p<0.0001).
To test whether the MAPK pathway and SHP2 might regulate the IRS1/2-AP2 interaction and IR endocytosis through modulating IRS1/2 phosphorylation patterns, the effects of inhibiting SHP2 or the MAPK pathway on insulin-activated IR endocytosis were examined (FIG. 2A and FIG. 7A).
For testing the effects of kinase inhibitors on IR endocytosis, the cells were serum starved for 14 h and inhibitors were added at 2 h before insulin treatment.

[2] = tested on: HepG2 cells expressing IR-GFP mutants; test: cellular localization of IR-GFP mutants in HepG2 cells after inhibitors; type: cell-based; conditions: starved 14 h, inhibitors 4 h, no insulin; for PM levels of Class II IR mutants: R1020Q, V1054M, A1075D, V1086E, I1143T
Excerpt: FIGS. 4A-E. Dysregulation of IR endocytosis as a potential contributing factor to human insulin resistance syndromes. (FIG. 4A) Representative images of liver specimens from human non-diabetes and diabetes patients stained with DAPI (blue) and anti-IR (red) and anti-ZO-1 (green) antibodies. Scale bars, 40 μm. (FIG. 4B) Quantification of the percentage of cells with positive IR PM signals in liver specimens in FIG. 4A (mean±SD; *p<0.0001). (FIG. 4C) HepG2 cells stably expressing IR-GFP R1020Q, V1054M, A1075D, V1086E, or I1143T were serum starved and stained with anti-GFP and anti-RAB7 antibodies. Scale bar, 5 μm. (FIG. 4D) Quantification of the ratios of PM and IC IR-GFP signals of cells in FIG. 4C (mean±SD; *p<0.0001). (FIG. 4E) Targeting feedback regulation of IR endocytosis for diabetes treatment. Left panel depicts the feedback regulation of IR endocytosis by ERK1/2 and SHP2 during unperturbed insulin signaling.
FIGS. 9A-D. Characterization of IR mutations found in human patients. (FIG. 9A) HepG2 cells expressing IR-GFP Class I mutants (P997T, V1012M, A1055V, K1095E, R1119Q, H1157R, R1191Q, Y1361C, or R1378Q) were starved for 14 h, treated with the indicated inhibitors for 4 h, and stained with anti-GFP (IR; green) and DAPI (blue). Scale bar, 5 m. (FIG. 9B) HepG2 cells expressing IR-GFP Class II mutants (R1020Q, V1054M, A1075D, V1086E, or I1143T) were analyzed as described in FIG. 9A. (FIG. 9C) HepG2 cells expressing IR-GFP Class III mutants (A1162E or W1220L) were analyzed as described in A. (FIG. 9D) HepG2 cells expressing IR-GFP WT, R1020Q, or V1054M were serum starved for 14 h and treated with DMSO or 80 μM Dynasore for 4 h. Cell lysates were blotted with the indicated antibodies.
Mutations of IR are known to cause inherited severe insulin resistance syndromes, but the mechanisms by which these mutations affect IR function have not been systematically explored. HepG2 cell lines were generated which stably expressed IR mutants fused to GFP, and the subcellular localization of these IR-GFP proteins was examined (FIGS. 9A-C and Table 1).
There were three distinct classes of IR mutants based on their subcellular localization in the unstimulated state. Class I mutants localized to the PM. […] Thus, certain IR mutations found in human insulin resistance syndromes perturbs IR kinase regulation and causes premature IR endocytosis.
Cellular localization of IR mutants was examined after inhibiting the SHP2 or MAPK pathways (FIGS. 4C-D, and FIGS. 9A-C).
Indirect immunofluorescence microscopy was performed on cells grown on coverslips and fixed in cold methanol at −20° C. for 10 min. The fixed cells were incubated with PBS for 30 min and 3% BSA in 0.1% PBST for 1 h, and then treated with diluted antibodies in 0.3% BSA in 0.1% PBST at 4° C. overnight. After being washed, cells were incubated with fluorescent secondary antibodies and mounted on microscope slides in ProLong Gold Antifade reagent with DAPI (Invitrogen). Images of fixed cells were acquired as a series of 0.4 m stacks with a DeltaVision® system (Applied Precision®, Issaquah, Wash.). Raw images were deconvolved using the iterative algorithm implemented in the softWoRx® software (Applied Precision®, Issaquash, Wash.). The central section of a 0.4 μm z-stack containing 3 contiguous focal planes was used for quantification. The cell edges were defined with Image J. The whole cell signal intensity (WC) and intracellular signal intensity (IC) were measured. The plasma membrane signal intensity (PM) was calculated by subtracting IC from WC. Identical exposure times and magnifications were used for all comparative analyses.

AP2M1 (residues 160-435) [3] = target: T1, AP2M1 (residues 160-435) (Homo sapiens, UniProt Q96CW1); test: in vitro peptide pull-down of AP2M1 with IRS1 peptides; type: binding; conditions: peptide beads pull-down, SDS-PAGE, Coomassie
T1 construct: The AP2M1 fragment (residues 160-435) was cloned into a modified pET28a; His6 (N, cleaved yes); made in house; host or cells: E. coli BL21(DE3)
T1 sequence (Q96CW1 160-435): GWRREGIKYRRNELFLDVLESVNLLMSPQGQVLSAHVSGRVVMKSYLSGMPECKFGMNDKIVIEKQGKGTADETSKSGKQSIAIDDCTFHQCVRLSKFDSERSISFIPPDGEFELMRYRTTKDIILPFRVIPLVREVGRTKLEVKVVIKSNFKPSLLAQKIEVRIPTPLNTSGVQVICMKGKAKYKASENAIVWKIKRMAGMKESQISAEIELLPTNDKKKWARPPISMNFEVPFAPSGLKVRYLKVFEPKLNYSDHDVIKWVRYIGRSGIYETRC
Experimental: FIGS. 2A-I. The MAPK pathway and SHP2 promote insulin-activated IR endocytosis. (FIG. 2A) HepG2 cells expressing IR-GFP WT were starved, treated with the indicated inhibitors for 2 h, treated without or with 100 nM insulin for 20 min, and stained with anti-GFP (IR; green) and DAPI (blue). See also FIG. 7A for representative images. Quantification of the ratios of PM and IC IR-GFP signals of cells was shown (mean±SD; *p<0.0001). (FIG. 2B) Binding of IRS1 peptides to AP2M1 (residues 160-435). Input and proteins bound to IRS1-peptide beads were analyzed by SDS-PAGE and stained with Coomassie (CBB). The relative band intensities are shown below (mean±SD; n=4 independent experiments). (FIG. 2C) ITC analysis of binding between IRS1 peptides and AP2M1 (residue 160-435), with the Kd indicated. (FIG. 2D) The IRS1 peptides were incubated with active SHP2 for the indicated durations, spotted onto membranes, and detected with the anti-pY612-IRS1 antibody. (FIG. 2E) Quantification of the relative SHP2 activity in FIG. 2D (mean±SD; n=4 independent experiments; *p<0.0001). (FIG. 2F) Model of the regulation of insulin-activated IR endocytosis by a phosphorylation switch on IRS1/2. Insulin-bound IR phosphorylates itself and IRS1/2, and activates the PI3K-AKT and MAPK pathways. SHP2 acts upstream of RAS-RAF and promotes the activation of MAPK pathway. p31^comet binds to the IR-bound MAD2 and blocks IR-AP2 association to prevent premature IR endocytosis. In feedback regulation, activated ERK1/2 phosphorylate S616 and other sites on IRS1. […]
(§1) For GST pull-down assays of in vitro translated (IVT) IRS1 proteins, beads bound to GST-AP2M1 or GST were incubated with IVT products diluted in the cell lysis buffer at 4° C. for 2 h. After incubation and washing, proteins bound to beads were eluted with the SDS loading buffer, resolved with SDS-PAGE, and detected with Coomassie staining or immunoblotting with the appropriate antibodies. […]

AP2M1 (residues 160-435) [4] = target: T1, AP2M1 (residues 160-435); test: isothermal titration calorimetry (ITC) of IRS1 peptides with AP2M1; type: binding; conditions: 20° C., HEPES buffer pH 7.5
Excerpt: The unphosphorylated and phosphorylated IRS1 peptides containing 612YMPMS (SEQ ID NO:7) FIG. 7B) were chemically synthesized and used for in vitro pull-down assays to examine their binding to AP2M1 (FIG. 2B). […] Thus, phosphorylation of IRS1 by ERK1/2 enhances IRS1 binding to AP2M1.
The AP2M1 fragment (residues 160-435) was cloned into a modified pET28a that introduced an N-terminal His6-tag followed by a thrombin cleavage site. The plasmid was transformed into BL21(DE3) E. coli cells. Protein expression was induced by 0.2 mM IPTG at 20° C. overnight. The harvested pellets were lysed in the lysis buffer II (20 mM Tris-HCl, pH 7.5, 500 mM NaCl, 20 mM Imidazole, 1 mM PMSF). After sonication, lysates were cleared by centrifugation at 4° C. The supernatants were filtered by […] filter and incubated with pre-equilibrated Ni2+-NTA beads (Qiagen®). […]
as §1

| Compound | insulin-activated IR endocytosis (ratio of PM and IC IR-GFP signals) [1] | PM levels of Class II IR mutants [2] | also measured |
| --- | --- | --- | --- |
| O=c1[nH]c2ccccc2n1C1CCN(Cc2ccc(-c3nc4cc5[nH]cnc5cc4nc3-c3ccccc3)cc2)CC1 [AKTi, VIII] | did not affect IR endocytosis |  |  |
| Cc1cc(N2CCOCC2)cc2[nH]c(-c3c(NC[C@@H](O)c4cccc(Cl)c4)cc[nH]c3=O)nc12 [BMS536924] | blocked IR endocytosis | restored Class II IR mutants at the PM |  |
| N#CC(=C(/N)Sc1ccccc1N)/C(C#N)=C(\N)Sc1ccccc1N [Compound U0126] | blocked IR endocytosis | significantly enhanced the PM levels of Class II IR mutants | PM levels of Class I and III IR mutants [2]: not those of Class I and III IR mutants |
| c1nc2nc(Nc3ccc(N4CCOCC4)cc3)nc(NC3CCCCC3)c2[nH]1 [Reversine] | did not appreciably inhibit IR endocytosis |  |  |
| O=C(N/N=C/c1ccc(O)c(O)c1)c1cc2ccccc2cc1O [dynasore] |  | elevated the IR signal of Class II mutants at the PM |  |
| AMPAS: mutant IRS1 peptide CHTDDGAMPASPGVA (SEQ ID NO:10), Y612 and M615 replaced by alanine |  |  | binding to AP2M1 (AP2M1 (residues 160-435) [3]): did not |
| CHTDDGYMPMSPGVA [YMPMS] |  |  | Kd (AP2M1 (residues 160-435) [4]): 2030 nM |
| pYMPMS: singly phosphorylated IRS1 peptide CHTDDGpYMPMSPGVA (SEQ ID NO:12) (CHTDDG[pY]MPMSPGVA) |  |  | binding to AP2M1 (AP2M1 (residues 160-435) [3]): abolished AP2M1 binding |
